Structures can show the parent of a compound that is named as a salt.
Each molecule was assayed against MCH receptor (Homo sapiens, UniProt Q99705) (assay: High throughput functional screening FLIPR/FDSS6000: inhibition of MCH-evoked intracellular Ca2+ changes). Conditions: antagonist activity, 50 nM of MCH, FLIPR or FDSS; read-out: IC50.
Format: cell-based
Procedure, shortened: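 Antagonism was measured as inhibition of calcium responses to 50 nM MCH, monitored 290 s at ex 488/em 530 nm on FLIPR or FDSS6000. Beforehand, cells bearing a constitutively active MCH receptor received Fluo4-AM (4 μM, 1 h, 37 °C) with probenecid, and test compound for 3 min.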
`CN(C)c1nc(N[C@H]2CC[C@@H](CNC(=O)Nc3cccc(Cl)c3Cl)CC2)nc2ccccc12` [Example 2, 1-(2,3-Dichloro-phenyl)-3-[cis-4-(4-dimethylamino-quinazolin-2-ylamino)-cyclohexylmethyl]-urea hydrochloride] was tested, and the IC50 was 13 nM.

Same assay, conditions: class by percent of control at 10^-7 M or IC50
In the case of `CN(C)c1nc(N[C@H]2CC[C@@H](CNC(=O)Nc3ccccc3C#N)CC2)nc2ccccc12` [compound 760], the class is reported as 3 (Class 3: The value of percent of control at 10^−7 M was more than 60% or the value of IC50 was more than 200 nM.).
In the case of `CC(C)c1ccc(NC(=S)NC[C@H]2CC[C@@H](Nc3nc(N(C)C)c4ccccc4n3)CC2)cc1` [compound 699], the class is reported as 3 (Class 3: The value of percent of control at 10^−7 M was more than 60% or the value of IC50 was more than 200 nM.).
For `CCOc1ccc(NC(=S)NC[C@H]2CC[C@@H](Nc3nc(N(C)C)c4ccccc4n3)CC2)cc1` [compound 596], the class was 3 (Class 3: The value of percent of control at 10^−7 M was more than 60% or the value of IC50 was more than 200 nM.).
With `COc1ccc(NC(=S)NC[C@H]2CC[C@@H](Nc3nc(N(C)C)c4ccccc4n3)CC2)cc1OC` [compound 628] the class was 3 (Class 3: The value of percent of control at 10^−7 M was more than 60% or the value of IC50 was more than 200 nM.).
`CN(C)c1nc(N[C@H]2CC[C@@H](CNC(=O)Nc3ccccc3Br)CC2)nc2ccccc12` [compound 411, N-(2-bromophenyl)-N′-[(cis-4-{[4-(dimethylamino)quinazolin-2-yl]amino}cyclohexyl)methyl]urea] was tested, and the class was 2 (Class 2: The value of percent of control at 10^−7 M was from 40% to 60% or the value of IC50 was from 50 nM to 200 nM.).
With `COc1ccccc1CNC(=S)N[C@H]1CC[C@@H](Nc2nc(N(C)C)c3ccccc3n2)CC1` [compound 367, N-(cis-4-{[4-(dimethylamino)quinazolin-2-yl]amino}cyclohexyl)-N′-(2-methoxybenzyl)thiourea] the class was 2 (Class 2: The value of percent of control at 10^−7 M was from 40% to 60% or the value of IC50 was from 50 nM to 200 nM.).
For `CC(C)CNC(=S)NC[C@H]1CC[C@@H](Nc2nc(N(C)C)c3ccccc3n2)CC1` [compound 602, N-[(cis-4-{[4-(dimethylamino)quinazolin-2-yl]amino}cyclohexyl)methyl]-N′-isobutylthiourea], the class was 2 (Class 2: The value of percent of control at 10^−7 M was from 40% to 60% or the value of IC50 was from 50 nM to 200 nM.).
For `CN(C)c1nc(N[C@H]2CC[C@@H](NC(=S)NC(c3ccccc3)c3ccccc3)CC2)nc2ccccc12` [compound 284, N-(cis-4-{[4-(dimethylamino)quinazolin-2-yl]amino}cyclohexyl)-N′-(diphenylmethyl)thiourea], the class was 2 (Class 2: The value of percent of control at 10^−7 M was from 40% to 60% or the value of IC50 was from 50 nM to 200 nM.).
In the case of `Cc1ccc(NC(=S)NC[C@H]2CC[C@@H](Nc3nc(N(C)C)c4ccccc4n3)CC2)cc1Cl` [compound 687], the class is reported as 3 (Class 3: The value of percent of control at 10^−7 M was more than 60% or the value of IC50 was more than 200 nM.).
With `CSc1cccc(NC(=S)N[C@H]2CC[C@@H](Nc3nc(N(C)C)c4ccccc4n3)CC2)c1` [compound 257] the class was 3 (Class 3: The value of percent of control at 10^−7 M was more than 60% or the value of IC50 was more than 200 nM.).
`CN(C)c1nc(N[C@H]2CC[C@@H](CNC(=O)Nc3cc(F)cc(C(F)(F)F)c3)CC2)nc2ccccc12` [compound 532] was tested, and the class was 2 (Class 2: The value of percent of control at 10^−7 M was from 40% to 60% or the value of IC50 was from 50 nM to 200 nM.).
“N-(2,5-dimethylphenyl)-N′-[(cis-4-{[4-(dimethylamino)quinazolin-2-yl]amino}cyclohexyl)methyl]urea [compound 480]” was tested, and the class was 2 (Class 2: The value of percent of control at 10^−7 M was from 40% to 60% or the value of IC50 was from 50 nM to 200 nM.).
`CN(C)c1ccc(/N=N/c2ccc(NC(=S)N[C@H]3CC[C@@H](Nc4nc(N(C)C)c5ccccc5n4)CC3)cc2)cc1` [compound 391] was tested, and the class was 3 (Class 3: The value of percent of control at 10^−7 M was more than 60% or the value of IC50 was more than 200 nM.).
In the case of `CN(C)c1nc(N[C@H]2CC[C@@H](CNC(=O)Nc3cc(Cl)cc(Cl)c3)CC2)nc2ccccc12` [compound 424, N-(3,5-dichlorophenyl)-N′-[(cis-4-{[4-(dimethylamino)quinazolin-2-yl]amino}cyclohexyl)methyl]urea], the class is reported as 1 (Class 1: The value of percent of control at 10^−7 M was less than 40% or the value of IC50 was less than 50 nM.).
With `COc1ccc(NC(=S)NC[C@H]2CC[C@@H](Nc3nc(N(C)C)c4ccccc4n3)CC2)cc1` [compound 607] the class was 3 (Class 3: The value of percent of control at 10^−7 M was more than 60% or the value of IC50 was more than 200 nM.).

Same assay, conditions: class by percent of control at 10^-7 M or by IC50; read-out: class
In the case of `COc1cc(COC(=O)N[C@H]2CC[C@@H](Nc3nc(N(C)C)c4ccccc4n3)CC2)c([N+](=O)[O-])cc1OC` [compound 848], the IC50 is reported as < 50 nM.
With `CCCNC(=S)N[C@H]1CC[C@@H](Nc2nc(N(C)C)c3ccccc3n2)CC1` [compound 193, N-(cis-4-{[4-(dimethylamino)quinazolin-2-yl]amino}cyclohexyl)-N′-propylthiourea] the IC50 was 50 to 200 nM.
In the case of `COc1ccc(NC(=O)N[C@H]2CC[C@@H](Nc3nc(N(C)C)c4ccccc4n3)CC2)cc1OC` [compound 124, N-(3,4-dimethoxyphenyl)-N′-(cis-4-{[4-(dimethylamino)quinazolin-2-yl]amino}cyclohexyl)urea], the IC50 is reported as < 50 nM.
For `CN(C)c1nc(N[C@H]2CC[C@@H](NC(=O)Nc3ccc(Cc4ccccc4)cc3)CC2)nc2ccccc12` [compound 140], the IC50 was > 200 nM.
`CN(C)c1nc(N[C@H]2CC[C@@H](NC(=S)Nc3ccc(Br)cc3)CC2)nc2ccccc12` [compound 158, N-(4-bromophenyl)-N′-(cis-4-{[4-(dimethylamino)quinazolin-2-yl]amino}cyclohexyl)thiourea] was tested, and the IC50 was < 50 nM.
With `CC(=O)c1ccc(NC(=S)N[C@H]2CC[C@@H](Nc3nc(N(C)C)c4ccccc4n3)CC2)cc1` [compound 154] the IC50 was > 200 nM.

Same assay, conditions: class by percent of control at 10^−7 M or by IC50; read-out: class
With `CN(C)c1nc(N[C@H]2CC[C@@H](C(=O)NCc3ccc(Br)cc3)CC2)nc2cc(F)c(F)cc12` [Example 1002, cis-N-(4-bromobenzyl)-4-{[4-(dimethylamino)-6,7-difluoroquinazolin-2-yl]amino}cyclohexanecarboxamide] the IC50 was < 50 nM.
In the case of `CN(C)c1nc(N[C@H]2CC[C@@H](C(=O)NCc3ccccc3)CC2)nc2cc(F)c(F)cc12` [Example 992, cis-N-benzyl-4-{[4-(dimethylamino)-6,7-difluoroquinazolin-2-yl]amino}cyclohexanecarboxamide], the IC50 is reported as 50 to 200 nM.
With `CN(C)c1nc(N[C@H]2CC[C@@H](CNC(=O)Nc3c(Cl)cccc3Cl)CC2)nc2ccccc12` [Example 1025, N-(2,6-dichlorophenyl)-N′-[(cis-4-{[4-(dimethylamino)quinazolin-2-yl]amino}cyclohexyl)methyl]urea] the IC50 was < 50 nM.
For `COc1ccccc1Oc1ccc(C(=O)N[C@H]2CC[C@@H](Nc3nc(N(C)C)c4ccccc4n3)CC2)cn1` [Example 1054, N-(cis-4-{[4-(dimethylamino)quinazolin-2-yl]amino}cyclohexyl)-6-(2-methoxyphenoxy)nicotinamide], the IC50 was < 50 nM.

Reference: patent US20070010671A1, “Novel quinazoline derivatives and methods of treatment related to the use thereof” (priority 2003, published 2007)
